Positions count from the first letter of the chain named.
Experiments:
[1] = target: T1, FUS–GFP (Homo sapiens, UniProt P35637, G156E); assay: condensate ageing: FRAP and fibre formation; assay type: biochemical; details: 30 uM compound, 50 mM KCl, 1 mM DTT, pH 7.4, shaking; condensates
T1 construct: full-length FUS with C-terminal GFP; 6xHis-MBP tag cleaved by 3C protease; Sf9 insect cells; condensates at low salt
T1 sequence (P35637 1-526 G156E): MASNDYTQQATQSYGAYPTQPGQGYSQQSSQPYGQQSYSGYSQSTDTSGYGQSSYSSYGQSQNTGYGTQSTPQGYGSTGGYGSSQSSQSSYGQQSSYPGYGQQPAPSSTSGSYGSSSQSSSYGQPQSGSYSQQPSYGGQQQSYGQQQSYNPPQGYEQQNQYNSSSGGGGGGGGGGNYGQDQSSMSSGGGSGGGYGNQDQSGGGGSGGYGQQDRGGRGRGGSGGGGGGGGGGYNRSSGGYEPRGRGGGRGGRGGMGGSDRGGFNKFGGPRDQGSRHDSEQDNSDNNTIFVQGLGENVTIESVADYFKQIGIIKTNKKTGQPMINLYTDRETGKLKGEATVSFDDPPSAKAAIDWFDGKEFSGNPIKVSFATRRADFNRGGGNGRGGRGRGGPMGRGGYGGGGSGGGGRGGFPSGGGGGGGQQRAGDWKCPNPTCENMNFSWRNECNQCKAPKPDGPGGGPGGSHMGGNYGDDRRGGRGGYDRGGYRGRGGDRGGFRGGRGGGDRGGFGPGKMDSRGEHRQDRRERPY

[2] = target: T2, FUS–GFP (Homo sapiens, UniProt P35637); assay: imaging of FUS-GFP condensates in vitro; assay type: biochemical; details: 100 uM compound, 50 mM KCl, 1 mM DTT, pH 7.4, 0.7 uM FUS-GFP
T2 construct: full-length FUS with C-terminal GFP; 6xHis-MBP tag cleaved by 3C protease; Sf9 insect cells; condensates at low salt
T2 sequence (P35637 1-526): T1 sequence (P35637 1-526 G156E) with E156G

SMILES	condensate ageing: FRAP and fibre formation [1]	imaging of FUS-GFP condensates in vitro [2]
NC(=O)CCCCC1CCSS1 (racemic) [lipoamide]	Both lipoamide and lipoic acid reduced FUS-G156E–GFP condensate hardening and fiber formation	–
O=C(O)CCCC[C@@H]1CCSS1 [lipoic acid]	Both lipoamide and lipoic acid reduced FUS-G156E–GFP condensate hardening and fiber formation	–
O=C1c2c(O)ccc(O)c2C(=O)c2c(NCCNCCO)ccc(NCCNCCO)c21 [mitoxantrone]	–	the fewer smaller drops with mitoxantrone

Source: PMC12463676, “Small-molecule dissolution of stress granules by redox modulation benefits ALS models” (Nature Chemical Biology, 2025)
